According to PMC11116330, “The evolutionary novelty of insect defensins: from bacterial killing to toxin neutralization” (Cellular and Molecular Life Sciences: CMLS, 2024):
Like-named read-outs stand apart in the source and are kept apart here. Positions of bridges follow the written chain, without caps; N, C: chain ends. Residues, ends and D or L forms follow the SMILES beside them.

What was measured:
[1] = system: Methicillin-sensitive Staphylococcus aureus (MSSA) CGMCC 1.89; experiment: Inhibition-zone antimicrobial assay; assay type: cell-based; details: 1 nmol/well
[2] = system: S15 DNA (15-bp fragment derived from the MRE motif CES11D1); experiment: Electrophoretic mobility shift assay (EMSA); assay type: binding; details: 5 µM annealed double strand S15, DvirARP 2, 4 or 8 µM, room temperature 20 min, 6% native polyacrylamide, ethidium bromide staining
[3] = system: Bacillus megaterium CGMCC 1.0459
[4] = system: Micrococcus luteus CGMCC 1.0290
[5] = Variable temperature CD spectroscopy; assay type: physicochemical; details: 10 to 65 °C, oxidized product, 5 mM PB pH 7.0
Protocol: For CD analysis, a peptide sample was dissolved in 5 mM phosphate buffer (PB, pH7.0) with a concentration of 0.1–0.2 mg/mL. CD spectra were measured on the Chirascan Plus spectropolarimeter v.4.4.0 (Applied Photophysics Ltd, UK) by using a quartz cell of 1.0 mm thickness. The wavelengths used ranged from 190 to 260 nm. Data were collected at 1 nm intervals with a scan rate of 0.5 s per point and expressed as delta epsilon (cm^-1M^-1). Delta epsilon was calculated as [θ×(MRW×0.1)/(C×L)/3298], where θ is the ellipticity (in millidegrees), C is the concentration (in mg/mL), L is the path length (in cm), and MRW is the mean residue weight (in Da).
Fig. 4 Experiment data-guided structural model of DvirARP built by comparative modelling. (A) Comparison of CD spectra of reduced and oxidized DvirARP in 5 mM PB buffer (pH7.0). Signature bands for the presence of cation–π and 3_10-helix are denoted by arrows. (B) Thermal denaturation curves of the oxidized product at indicated temperatures. (C) Sequence comparison between DvirARP and the template MSL2 CXC (residues 542–559). Identical and conserved residues are shadowed in yellow and grey, respectively. Residues involved in cation–π interactions are underlined twice. The predicted secondary structure element and disulfide bridges are extracted from the experiment-based computational model. […] (E) The cation–π interaction on the DvirARP structure. […]

SMILES: CC[C@H](C)[C@H](NC(=O)[C@H](C)NC(=O)[C@H](CC(N)=O)NC(=O)[C@H](CCCNC(=N)N)NC(=O)[C@H](C)NC(=O)[C@H](CCCNC(=N)N)NC(=O)[C@H](CCCNC(=N)N)NC(=O)[C@H](Cc1ccc(O)cc1)NC(=O)[C@@H]1CSSC[C@H](NC(=O)[C@@H](NC(=O)[C@H](C)N)C(C)C)C(=O)N[C@@H](CCCNC(=N)N)C(=O)N1)C(=O)N[C@H](C(=O)N[C@H]1CSSC[C@@H](C(=O)N[C@@H](CCCNC(=N)N)C(=O)O)NC(=O)[C@H](Cc2ccc(O)cc2)NC1=O)C(C)C [DvirARP] (H-AVCRCYRRARNAIVCYCR-OH; disulfide 3-5, 15-17; N-terminus and C-terminus assumed)
- Antibacterial activity in inhibition zone assay against S. aureus CGMCC 1.89 ([1]; peptide dissolved in 50% haemolymph serum from DvWT female adults): no detectable antibacterial activity
- Antibacterial activity in inhibition zone assay against S. aureus CGMCC 1.89 ([1]; peptide dissolved in 50% haemolymph serum from DvdelARP female adults): no detectable antibacterial activity
- Antibacterial activity in inhibition zone assay against S. aureus CGMCC 1.89 ([1]; peptide dissolved in insect saline (pH 7.2)): no detectable antibacterial activity
- Binding of S15 DNA fragment (EMSA) [2]: not able to bind
- Lethal concentration CL ([3]; Bacillus CGMCC 1.0459, pH 7): 17.68 µM
- Lethal concentration CL ([3]; inhibition-zone assay, 0.8% agar, 2 µL peptide per 2-mm well, peptide in 5 mM PB pH 7.0, overnight, Bacillus megaterium CGMCC 1.0459): > 10 µM
- Lethal concentration CL ([4]; CGMCC 1.0290, pH 7): 10.77 µM
- Lethal concentration CL ([4]; inhibition-zone assay, 0.8% agar, 2 µL peptide per 2-mm well, peptide in 5 mM PB pH 7.0, overnight, Micrococcus luteus CGMCC 1.0290): > 10 µM
- CD signature band around 230 nm (cation–π interaction) with temperature [5]: decreased with the temperature increase
- CD signature band at 206 nm (3_10-helix) with temperature [5]: overall retained
